{
  "source": "paper PMC9694544",
  "about": "“Conteltinib (CT-707) in patients with advanced ALK-positive non-small cell lung cancer: a multicenter, open-label, first-in-human phase 1 study” (BMC Medicine, 2022)",
  "key": {"ALK WT": {"target": "ALK WT (Homo sapiens, UniProt Q9UM73)", "assay": "ALK enzymatic IC50, WT", "type": "biochemical"}, "ALK G1269S": {"target": "ALK G1269S (Homo sapiens, UniProt Q9UM73, G1269S)", "assay": "ALK enzymatic IC50, G1269S", "type": "biochemical", "description": "Supplement 12916_2022_2646_MOESM1_ESM.docx, table 1 | column: ALK Enzymatic IC50 (nM)"}, "clinical": {"assay": "clinical", "details": "human, in vivo; for half-life: read-out: T1/2 (converted); for Tmax: read-out: Tmax", "method": "For single-dose PK parameters, plasma samples were taken at pre-dose and 0.5 h, 1 h, 2 h, 3 h, 4 h, 6 h, 8 h, 12 h, 24 h, 48 h, 72 h, 96 h, 120 h, 144 h, and 168 h post-dose in PK lead-in phase of dose-escalation phase, and plasma samples were also taken at pre-dose and 0.5 h, 1 h, 2 h, 3 h, 4 h, 6 h, 8 h, 12 h, and 24 h post-dose in cycle 1 day 1 of dose-expansion phase. During continuous dosing, serial plasma samples were collected at pre-dose in cycle 1 day 15, pre-dose in cycle 1 day 22, pre-dose and 0.5 h, 1 h, 2 h, 3 h, 4 h, 6 h, 8 h, 12 h, and 24 h post-dose in cycle 1 day 28 for all dose cohorts. The following PK parameters were assessed: area under the concentration-time curve from the time of dosing extrapolated to infinity, based on the last observed concentration (AUCINF_obs); area under the concentration-time curve from the time of dosing to the time of last observation (AUClast); maximum concentration (Cmax); time to maximum concentration (Tmax); elimination half-life (T1/2); and mean residence time from the time of dosing to the time of the last measurable concentration (MRTlast)."}, "[1]": {"details": "100 mg, cycle 1 day 28 of dose-expansion phase, 100 mg (n=5), mean"}, "[2]": {"details": "100 mg, single dose, cycle 1 day 1 of dose-expansion phase, 100 mg (n=5), mean"}, "[3]": {"details": "450 mg, cycle 1 day 28 of dose-expansion phase, 450 mg (n=10), mean"}, "[4]": {"details": "450 mg, single dose, cycle 1 day 1 of dose-expansion phase, 450 mg (n=10), mean"}, "[5]": {"details": "600 mg, cycle 1 day 28 of dose-expansion phase, 600 mg (n=10), mean"}, "[6]": {"details": "600 mg, single dose, cycle 1 day 1 of dose-expansion phase, 600 mg (n=10), mean"}, "[7]": {"details": "cycle 1 day 28 of dose-escalation phase, 50 mg (n=2), mean"}, "[8]": {"details": "cycle 1 day 28 of dose-escalation phase, 100 mg (n=3), mean"}, "[9]": {"details": "cycle 1 day 28 of dose-escalation phase, 200 mg (n=3), mean"}, "[10]": {"details": "cycle 1 day 28 of dose-escalation phase, 300 mg (n=3), mean"}, "[11]": {"details": "cycle 1 day 28 of dose-escalation phase, 450 mg (n=3), mean"}},
  "note": "Like-named read-outs stand apart in the source and are kept apart here.",
  "data": [
    {"smiles": "COc1cc(N2CCC(N3CCN(C)CC3)CC2)ccc1Nc1nc2c(c(Nc3ccccc3S(=O)(=O)NC(C)C)n1)CCN2", "note": "[Conteltinib]", "values": [
      {"measurement": "IC50", "setting": "ALK WT", "result": 1.5, "unit": "nM"},
      {"measurement": "IC50", "setting": "ALK G1269S", "result": 8.4, "unit": "nM"},
      {"measurement": "Cmax", "setting": "clinical; 100 mg, Cmax", "result": 123, "unit": "ng/mL"},
      {"measurement": "AUC(0-t)", "setting": "clinical; [1]", "result": 1710, "unit": "ng·h/mL"},
      {"measurement": "MRT last", "setting": "clinical; [1]", "result": 10.7, "unit": "h"},
      {"measurement": "AUC(0-inf)", "setting": "clinical; 100 mg, cycle 1 day 28 of dose-expansion phase, 100 mg (n=5), mean, read-out: AUCINF_obs", "result": 6460, "unit": "ng·h/mL"},
      {"measurement": "half-life", "setting": "clinical; [1]", "result": 53.2, "unit": "h"},
      {"measurement": "Tmax", "setting": "clinical; [1]", "result": 2, "unit": "h"},
      {"measurement": "AUC(0-t)", "setting": "clinical; [2]", "result": 737, "unit": "ng·h/mL"},
      {"measurement": "MRT last", "setting": "clinical; [2]", "result": 8.9, "unit": "h"},
      {"measurement": "AUC(0-inf)", "setting": "clinical; 100 mg, single dose, cycle 1 day 1 of dose-expansion phase, 100 mg (n=5), mean, read-out: AUCINF_obs", "result": 1310, "unit": "ng·h/mL"},
      {"measurement": "Cmax", "setting": "clinical; 100 mg, single dose, cycle 1 day 1 of dose-expansion phase, 100 mg (n=5), mean, read-out: Cmax", "result": 85.5, "unit": "ng/mL"},
      {"measurement": "half-life", "setting": "clinical; [2]", "result": 26.7, "unit": "h"},
      {"measurement": "Tmax", "setting": "clinical; [2]", "result": 2.7, "unit": "h"},
      {"measurement": "AUC(0-t)", "setting": "clinical; [3]", "result": 7040, "unit": "ng·h/mL"},
      {"measurement": "MRT last", "setting": "clinical; [3]", "result": 10.5, "unit": "h"},
      {"measurement": "AUC(0-inf)", "setting": "clinical; 450 mg, cycle 1 day 28 of dose-expansion phase, 450 mg (n=10), mean, read-out: AUCINF_obs", "result": 15700, "unit": "ng·h/mL"},
      {"measurement": "Cmax", "setting": "clinical; 450 mg, cycle 1 day 28 of dose-expansion phase, 450 mg (n=10), mean, read-out: Cmax", "result": 491, "unit": "ng/mL"},
      {"measurement": "half-life", "setting": "clinical; [3]", "result": 26.3, "unit": "h"},
      {"measurement": "Tmax", "setting": "clinical; [3]", "result": 3, "unit": "h"},
      {"measurement": "AUC(0-t)", "setting": "clinical; [4]", "result": 3060, "unit": "ng·h/mL"},
      {"measurement": "MRT last", "setting": "clinical; [4]", "result": 9.3, "unit": "h"},
      {"measurement": "AUC(0-inf)", "setting": "clinical; 450 mg, single dose, cycle 1 day 1 of dose-expansion phase, 450 mg (n=10), mean, read-out: AUCINF_obs", "result": 6340, "unit": "ng·h/mL"},
      {"measurement": "Cmax", "setting": "clinical; 450 mg, single dose, cycle 1 day 1 of dose-expansion phase, 450 mg (n=10), mean, read-out: Cmax", "result": 328, "unit": "ng/mL"},
      {"measurement": "Tmax", "setting": "clinical; [4]", "result": 2.3, "unit": "h"},
      {"measurement": "AUC(0-inf)", "setting": "clinical; 600 mg, AUCINF_obs", "result": 7150, "unit": "ng·h/mL"},
      {"measurement": "AUC(0-t)", "setting": "clinical; [5]", "result": 11900, "unit": "ng·h/mL"},
      {"measurement": "AUC(0-inf)", "setting": "clinical; 600 mg, cycle 1 day 28 of dose-expansion phase, 600 mg (n=10), mean, read-out: AUCINF_obs", "result": 32500, "unit": "ng·h/mL"},
      {"measurement": "Cmax", "setting": "clinical; 600 mg, cycle 1 day 28 of dose-expansion phase, 600 mg (n=10), mean, read-out: Cmax", "result": 772, "unit": "ng/mL"},
      {"measurement": "half-life", "setting": "clinical; [5]", "result": 37.1, "unit": "h"},
      {"measurement": "Tmax", "setting": "clinical; [5]", "result": 3.3, "unit": "h"},
      {"measurement": "AUC(0-t)", "setting": "clinical; [6]", "result": 4610, "unit": "ng·h/mL"},
      {"measurement": "MRT last", "setting": "clinical; [6]", "result": 9.8, "unit": "h"},
      {"measurement": "Cmax", "setting": "clinical; 600 mg, single dose, cycle 1 day 1 of dose-expansion phase, 600 mg (n=10), mean, read-out: Cmax", "result": 472, "unit": "ng/mL"},
      {"measurement": "half-life", "setting": "clinical; [6]", "result": 16.7, "unit": "h"},
      {"measurement": "Tmax", "setting": "clinical; [6]", "result": 4.6, "unit": "h"},
      {"measurement": "AUC(0-t)", "setting": "clinical; [7]", "result": 683, "unit": "ng·h/mL"},
      {"measurement": "AUC(0-inf)", "setting": "clinical; cycle 1 day 28 of dose-escalation phase, 50 mg (n=2), mean, read-out: AUCINF_obs", "result": 16700, "unit": "ng·h/mL"},
      {"measurement": "Cmax", "setting": "clinical; cycle 1 day 28 of dose-escalation phase, 50 mg (n=2), mean, read-out: Cmax", "result": 42.7, "unit": "ng/mL"},
      {"measurement": "half-life", "setting": "clinical; [7]", "result": 352, "unit": "h"},
      {"measurement": "Tmax", "setting": "clinical; [7]", "result": 1.5, "unit": "h"},
      {"measurement": "AUC(0-t)", "setting": "clinical; [8]", "result": 1480, "unit": "ng·h/mL"},
      {"measurement": "AUC(0-inf)", "setting": "clinical; cycle 1 day 28 of dose-escalation phase, 100 mg (n=3), mean, read-out: AUCINF_obs", "result": 6110, "unit": "ng·h/mL"},
      {"measurement": "Cmax", "setting": "clinical; cycle 1 day 28 of dose-escalation phase, 100 mg (n=3), mean, read-out: Cmax", "result": 106, "unit": "ng/mL"},
      {"measurement": "half-life", "setting": "clinical; [8]", "result": 61.1, "unit": "h"},
      {"measurement": "Tmax", "setting": "clinical; [8]", "result": 2.7, "unit": "h"},
      {"measurement": "AUC(0-t)", "setting": "clinical; [9]", "result": 3570, "unit": "ng·h/mL"},
      {"measurement": "MRT last", "setting": "clinical; [9]", "result": 11.2, "unit": "h"},
      {"measurement": "AUC(0-inf)", "setting": "clinical; cycle 1 day 28 of dose-escalation phase, 200 mg (n=3), mean, read-out: AUCINF_obs", "result": 12400, "unit": "ng·h/mL"},
      {"measurement": "Cmax", "setting": "clinical; cycle 1 day 28 of dose-escalation phase, 200 mg (n=3), mean, read-out: Cmax", "result": 259, "unit": "ng/mL"},
      {"measurement": "half-life", "setting": "clinical; [9]", "result": 42.2, "unit": "h"},
      {"measurement": "Tmax", "setting": "clinical; [9]", "result": 3, "unit": "h"},
      {"measurement": "AUC(0-t)", "setting": "clinical; [10]", "result": 4860, "unit": "ng·h/mL"},
      {"measurement": "AUC(0-inf)", "setting": "clinical; cycle 1 day 28 of dose-escalation phase, 300 mg (n=3), mean, read-out: AUCINF_obs", "result": 19000, "unit": "ng·h/mL"},
      {"measurement": "Cmax", "setting": "clinical; cycle 1 day 28 of dose-escalation phase, 300 mg (n=3), mean, read-out: Cmax", "result": 282, "unit": "ng/mL"},
      {"measurement": "half-life", "setting": "clinical; [10]", "result": 50.9, "unit": "h"},
      {"measurement": "Tmax", "setting": "clinical; [10]", "result": 3, "unit": "h"},
      {"measurement": "AUC(0-t)", "setting": "clinical; [11]", "result": 8050, "unit": "ng·h/mL"},
      {"measurement": "MRT last", "setting": "clinical; [11]", "result": 11.6, "unit": "h"},
      {"measurement": "AUC(0-inf)", "setting": "clinical; cycle 1 day 28 of dose-escalation phase, 450 mg (n=3), mean, read-out: AUCINF_obs", "result": 34400, "unit": "ng·h/mL"},
      {"measurement": "Cmax", "setting": "clinical; cycle 1 day 28 of dose-escalation phase, 450 mg (n=3), mean, read-out: Cmax", "result": 474, "unit": "ng/mL"},
      {"measurement": "half-life", "setting": "clinical; [11]", "result": 48.6, "unit": "h"}
    ]}
  ]
}
